Our source for the Ki values is patent publication US11007200B2, “Cycloalkyl-diamines for the treatment of pain” (MediSynergics, LLC, priority 2019, dated 2021).

One test addresses Sigma-2. The test is described as follows: Sigma-2 Ki determination (NIMH-PDSP). It counts as binding. As to conditions: standard drug haloperidol. The procedure:
(§1) The compounds from the above Examples were tested for Sigma-1 and Sigma-2 activity. Ki determinations were generously provided by the National Institute of Mental Health's Psychoactive Drug Screening Program (PDSP), Contract #HHSN-272-2013-000017-C(NIMH-PDSP). The NIMH-PDSP is directed by Bryan L Roth MD, PhD at the University of North Carolina at Chapel Hill, N.C. and Project Officer Jamie Driscoll at NIMH, Bethesda, Md., USA. Procedures employed by the PDSP as described in the NIMH-PDSP Assay Protocol Book, Version II. The standard drug used in both Sigma subtype assays is haloperidol.

In the next test the target is Sigma-1. The test is described as follows: Sigma-1 Ki determination (NIMH-PDSP). Conditions: standard drug haloperidol. The class given is binding. As for the experimental part:
as §1

Usually Ki stands for the equilibrium dissociation constant of an inhibitor or competing ligand from its target. High values mean weaker binding, low ones tighter binding.

Where a name gives a salt, the structure may show the parent alone.

With `CN[C@]1(c2ccccc2Cl)CCCC[C@@H]1NCCCN1CCCC1` (relative stereo) [Example 2a, Cis-(1S,2S)-1-(2-chlorophenyl)-N^1-methyl-N^2-[3-(pyrrolidin-1-yl)propyl]-cyclohexane-1,2-diamine trihydrochloride], the Ki at Sigma-2 came out at 0.0598 µM; at Sigma-1, 0.0173 µM.

With `CN[C@]1(c2ccccc2Cl)CCCC[C@H]1NCCCN1CCCC1` (relative stereo) [Example 2b, Trans-(1S,2R)-1-(2-chlorophenyl)-N^1-methyl-N^2-[3-(pyrrolidin-1-yl)propyl]-cyclohexane-1,2-diamine trihydrochloride], the Ki on Sigma-2 came out at 0.305 µM; at Sigma-1 it was 0.0372 µM.

Consider `CN[C@]1(c2ccccc2Cl)CCCC[C@@H]1NCCCc1ccc(F)cc1` (relative stereo) [Example 3a, Cis-(1S,2S)-1-(2-chlorophenyl)-N^2-[3-(4-fluorophenyl)propyl]-N^1-methyl-cyclohexane-1,2-diamine dihydrochloride], for which the figures for the Ki at Sigma-2 and on Sigma-1 were 0.018 µM and 0.0354 µM, respectively.

As for `CN[C@]1(c2ccccc2Cl)CCCC[C@H]1NCCCc1ccc(F)cc1` (relative stereo) [Example 3b, Trans-(1S,2R)-1-(2-chlorophenyl)-N^2-[3-(4-fluorophenyl)propyl]-N^1-methyl-cyclohexane-1,2-diamine dihydrochloride], the Ki at Sigma-2 turned out to be 0.675 µM; at Sigma-1, 0.217 µM.

For `CN[C@]1(c2ccccc2Cl)CCCC[C@@H]1NCCCc1ccccc1` (relative stereo) [Example 4a, Cis-(1S,2S)-1-(2-chlorophenyl)-N^1-methyl-N^2-(3-phenylpropyl)cyclohexane-1,2-diamine dihydrochloride], the Ki worked out at 0.0155 µM at Sigma-2 and 0.0972 µM at Sigma-1.

In the case of `CN[C@]1(c2ccccc2Cl)CCCC[C@H]1NCCCc1ccccc1` (relative stereo) [Example 4b, Trans-(1S,2R)-1-(2-chlorophenyl)-N^1-methyl-N^2-(3-phenylpropyl)cyclohexane-1,2-diamine dihydrochloride], the Ki on Sigma-2 was found to be 0.426 µM; on Sigma-1, 0.697 µM.

On to `CN[C@]1(c2ccccc2Cl)CCCC[C@@H]1NCCCN1CCN(C)CC1` (relative stereo) [Example 13a, Cis-(1S,2S)-1-(2-chlorophenyl)-N^1-methyl-N^2-(3-(4-methylpiperazin-1-yl)propyl)cyclohexane-1,2-diamine tetrahydrochloride], for which the Ki stood at 0.098 µM on Sigma-2 and 0.07 µM on Sigma-1.

For the molecule `CN[C@]1(c2ccccc2Cl)CCCC[C@H]1NCCCN1CCN(C)CC1` (relative stereo) [Example 13b, Trans-(1S,2R)-1-(2-chlorophenyl)-N^1-methyl-N^2-(3-(4-methylpiperazin-1-yl)propyl)cyclohexane-1,2-diamine tetrahydrochloride], the Ki on Sigma-2 stood at 0.435 µM; on Sigma-1, 0.146 µM.
